Results reported in PubChem BioAssay AID1963447 (Molecular Pharmacology Branch, DTP, NCI, 2024).
pIC50: −log10 of the molar value.

System: 885512-296-R-J2-PDC complex spheroid growth, % test/control
Experiment: Anticancer human tumor 885512-296-R-J2-PDC patient-derived breast carcinoma cell line growth inhibition [Asc]
Settings: for pIC50: curve of first compound; for viability, T/C: stronger effect = lower value
Method in brief: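 Stromal components (HUVEC and hMSC) are co-assembled with the cancer cells into multicellular spheroids. Drugs are then added singly or paired, at concentrations falling by half-log increments from a clinically achievable maximum, capped at 10 microM without known Cmax.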
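Further: spheroids exposed to compounds for seven days.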
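Wherever viability, T/C is given: 100% = DMSO vehicle control wells.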

**Q.** How did the pIC50 (second compound 0.01 µM) turn out when C=CC(=O)N1CCN(c2nc(=O)n(-c3c(C)ccnc3C(C)C)c3nc(-c4c(O)cccc4F)c(F)cc23)C(C)C1 (stereo not given) + CNC(C)C(=O)NC1CN(S(=O)(=O)c2cccc(S(=O)(=O)N3CCC4CCC(C(=O)NC(c5ccccc5)c5ccccc5)N4C(=O)C(NC(=O)C(C)NC)C3)c2)CCC2CCC(C(=O)NC(c3ccccc3)c3ccccc3)N2C1=O was run?
**A.** The pIC50 was under 5.00.

**Q.** And the pIC50 (second compound 0.0316 µM)?
**A.** The pIC50 was under 5.00.

**Q.** And the pIC50 (second compound 0.1 µM)?
**A.** Its pIC50 is under 5.00.

**Q.** And the pIC50 (second compound 0.316 µM)?
**A.** Its pIC50 is under 5.00.

**Q.** And the pIC50 (second compound 1 µM)?
**A.** The pIC50 was under 5.00.

**Q.** What about the viability, T/C (second compound 0.01 µM, first compound 0.0316 µM) of the same compound?
**A.** Its viability, T/C is 88.2%.

**Q.** And the viability, T/C (second compound 0.01 µM, first compound 0.1 µM)?
**A.** The viability, T/C was 80.9%.

**Q.** What about the viability, T/C (second compound 0.01 µM, first compound 0.316 µM) of the same compound?
**A.** Its viability, T/C is 101%.

**Q.** What about the viability, T/C (second compound 0.01 µM, first compound 1 µM) of the same compound?
**A.** Its viability, T/C is 81.3%.

**Q.** What about the viability, T/C (second compound 0.01 µM, first compound 3.16 µM) of the same compound?
**A.** Its viability, T/C is 90.6%.

**Q.** And the viability, T/C (second compound 0.01 µM, first compound 10 µM)?
**A.** The viability, T/C was 64.2%.

**Q.** What about the viability, T/C (second compound 0.0316 µM, first compound 0.0316 µM) of the same compound?
**A.** The viability, T/C was 90.3%.

**Q.** What about the viability, T/C (second compound 0.0316 µM, first compound 0.1 µM) of the same compound?
**A.** Its viability, T/C is 104%.

**Q.** What about the viability, T/C (second compound 0.0316 µM, first compound 0.316 µM) of the same compound?
**A.** Its viability, T/C is 96.6%.

**Q.** And the viability, T/C (second compound 0.0316 µM, first compound 1 µM)?
**A.** The viability, T/C was 97.2%.

**Q.** What about the viability, T/C (second compound 0.0316 µM, first compound 3.16 µM) of the same compound?
**A.** The viability, T/C was 92.6%.

**Q.** What about the viability, T/C (second compound 0.0316 µM, first compound 10 µM) of the same compound?
**A.** Its viability, T/C is 68.5%.

**Q.** And the viability, T/C (second compound 0.1 µM, first compound 0.0316 µM)?
**A.** The viability, T/C was 111%.

**Q.** And the viability, T/C (second compound 0.1 µM, first compound 0.1 µM)?
**A.** The viability, T/C was 109%.

**Q.** What about the viability, T/C (second compound 0.1 µM, first compound 0.316 µM) of the same compound?
**A.** The viability, T/C was 98%.

**Q.** And the viability, T/C (second compound 0.1 µM, first compound 1 µM)?
**A.** Its viability, T/C is 98.6%.

**Q.** And the viability, T/C (second compound 0.1 µM, first compound 3.16 µM)?
**A.** Its viability, T/C is 87.7%.

**Q.** And the viability, T/C (second compound 0.1 µM, first compound 10 µM)?
**A.** The viability, T/C was 66.8%.

**Q.** What about the viability, T/C (second compound 0.316 µM, first compound 0.0316 µM) of the same compound?
**A.** Its viability, T/C is 104%.

**Q.** And the viability, T/C (second compound 0.316 µM, first compound 0.1 µM)?
**A.** The viability, T/C was 106%.

**Q.** And the viability, T/C (second compound 0.316 µM, first compound 0.316 µM)?
**A.** Its viability, T/C is 98.8%.

**Q.** What about the viability, T/C (second compound 0.316 µM, first compound 1 µM) of the same compound?
**A.** Its viability, T/C is 100%.

**Q.** What about the viability, T/C (second compound 0.316 µM, first compound 3.16 µM) of the same compound?
**A.** The viability, T/C was 84.4%.

**Q.** And the viability, T/C (second compound 0.316 µM, first compound 10 µM)?
**A.** Its viability, T/C is 68.6%.

**Q.** And the viability, T/C (second compound 1 µM, first compound 0.0316 µM)?
**A.** The viability, T/C was 105%.

**Q.** And the viability, T/C (second compound 1 µM, first compound 0.1 µM)?
**A.** Its viability, T/C is 103%.

**Q.** What about the viability, T/C (second compound 1 µM, first compound 0.316 µM) of the same compound?
**A.** The viability, T/C was 104%.

**Q.** What about the viability, T/C (second compound 1 µM, first compound 1 µM) of the same compound?
**A.** Its viability, T/C is 109%.

**Q.** What about the viability, T/C (second compound 1 µM, first compound 3.16 µM) of the same compound?
**A.** The viability, T/C was 79.2%.

**Q.** What about the viability, T/C (second compound 1 µM, first compound 10 µM) of the same compound?
**A.** Its viability, T/C is 59%.
